Results on 12 molecules are retold here after patent publication US7799775B2, “Pyrimidine derivatives” (ASKA Pharmaceutical Co., Ltd., priority 2004, dated 2010).

Structures can show the parent of a compound that is named as a salt.

Assay [1] concerns the target T1, human 5-HT1A receptor (Homo sapiens, UniProt P08908).
T1 construct: purchased Packard Bioscience; host or cells: CHO cells (membrane preparation)
T1 sequence (P08908 1-422): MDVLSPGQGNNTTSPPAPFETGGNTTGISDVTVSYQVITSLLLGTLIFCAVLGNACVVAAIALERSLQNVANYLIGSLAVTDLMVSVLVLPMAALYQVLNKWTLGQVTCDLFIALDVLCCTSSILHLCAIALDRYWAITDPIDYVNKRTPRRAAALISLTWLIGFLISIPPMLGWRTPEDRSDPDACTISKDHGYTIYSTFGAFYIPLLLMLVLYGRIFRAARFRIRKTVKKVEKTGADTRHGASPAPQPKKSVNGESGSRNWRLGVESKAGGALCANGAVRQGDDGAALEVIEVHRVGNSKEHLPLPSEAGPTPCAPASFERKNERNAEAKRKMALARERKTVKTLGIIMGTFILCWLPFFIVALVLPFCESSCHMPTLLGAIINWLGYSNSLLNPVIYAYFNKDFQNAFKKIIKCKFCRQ
Put plainly: Affinity measurement of the compounds to human 5-HT1A receptor (in vitro), [3H]8-OH-DPAT binding. Particulars: test compound 100 nmols/L; [3H]8-OH-DPAT 0.25 nmols/L; CHO cell membrane expressing human 5-HT1A receptor; read-out: Percent Inhibition (%) on Each Receptor's Binding at 10^−7M, 5-HT1A. The procedure: (1) Affinity Measurement of the Compounds to Human 5-HT1A Receptor (in Vitro)
CHO cell membrane sample in which human 5-HT1A receptor was expressed (purchased from Packard Bioscience) 0.25 mL (about 50 units) was added to 24.75 mL of incubation buffer solution A (an aqueous solution of a mixture of 50 mmols/L of Tris-hydrochloric acid, 10 mmols/L of magnesium sulfate, 0.5 mmols/L of EDTA and 0.1% ascorbic acid, whose pH was adjusted to 7.4 at 27° C. with 1N-aqueous sodium hydroxide solution), and labeled as membrane sample suspension A. Separately, each test compound was made into 270 μmols/L DMSO solution and diluted to a prescribed concentration with the incubation buffer solution A, to provide a compound solution.
A piece of polypropylene tube was charged with 20 μL of [^3H]8-OH-DPAT (8-hydroxy-2-(di-n-propylamino)tetralin; purchased from Daiichi Pure Chemicals Co., Ltd.) (The concentration of the [^3H]8-OH-DPAT had been advancedly adjusted to render its concentration in the reaction mixture to 0.25 nmols/L) and 20 μL of one of the compound solutions. Further 500 μL of the membrane sample suspension A was added into the tube, followed by 60 minutes' incubation at 27° C. The reaction was terminated by rapid filtration of the reaction mixture through GF/C filter which had been advancedly immersed in a solution formed by adding to the incubation buffer solution A polyethyleneimine to a concentration of 0.3%, using Brandel cell harvester. Then the filter was washed with about 5 mL of 50 mmols/L of Tris-hydrochloric acid which had been cooled to 4° C. The filter was once again washed after similar operation.
Residual radioactivity on the filter was measured with liquid scintillation counter (Aloka Co., LSC-5100). Percent inhibition (%) of each test compound to binding of [^3H]8-OH-DPAT to 5-HT1A receptor at a concentration of 0.25 nmols/L, i.e., affinity of each test compound to 5-HT1A receptor, can be calculated according to the following expression. The ratio of non-specific binding was calculated by measuring the radioactivity in case of using 8-OH-DPAT at a concentration of 10 μmols/L, with which value the measured value of each test compound was compensated.
(§1) Affinity of each test compound to 5-HT1A receptor and 5-HT3 receptor at a concentration of 100 nmols/L were as shown in the following Tables A-1 and A-2. BRL-43694 and tropisetron (ICS 205-930), which were used in measuring affinity of those compounds to 5-HT3 receptor, have the following structures: […]

The target in assay [2] is T2, human 5-HT3 receptor (Homo sapiens, UniProt P46098).
T2 construct: purchased BIOLINKS K.K; host or cells: HEK-293 cells (membrane preparation)
T2 sequence (P46098 24-478): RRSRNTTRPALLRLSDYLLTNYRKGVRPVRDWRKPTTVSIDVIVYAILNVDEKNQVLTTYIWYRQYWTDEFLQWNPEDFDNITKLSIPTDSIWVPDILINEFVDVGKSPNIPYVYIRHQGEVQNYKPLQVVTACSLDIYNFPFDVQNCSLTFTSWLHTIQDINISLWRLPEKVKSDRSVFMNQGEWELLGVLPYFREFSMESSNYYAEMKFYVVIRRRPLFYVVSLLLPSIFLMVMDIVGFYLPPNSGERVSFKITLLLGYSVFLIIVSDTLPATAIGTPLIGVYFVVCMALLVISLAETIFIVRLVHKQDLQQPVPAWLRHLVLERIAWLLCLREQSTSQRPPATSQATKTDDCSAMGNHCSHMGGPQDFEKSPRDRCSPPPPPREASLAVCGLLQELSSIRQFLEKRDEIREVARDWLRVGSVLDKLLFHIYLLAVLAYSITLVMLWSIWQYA
Put plainly: Measurement of affinity to human 5-HT3 receptor (in vitro), [3H]BRL-43694 binding. Conditions: test compound 100 nmols/L; [3H]BRL-43694 0.5 nmols/L; HEK-293 cell membrane expressing human 5-HT3 receptor; read-out: Percent Inhibition (%) on Each Receptor's Binding at 10^−7M, 5-HT3. Here is the method: (2) Measurement of Affinity of Each Test Compound to Human 5-HT3 Receptor (in Vitro):
HEK-293 cell membrane sample in which human 5-HT3 receptor was expressed (purchased from BIOLINKS K.K.) 0.05 mL (about 50 microassay) was added to 24.95 mL of incubation buffer solution B (an aqueous solution of a mixture of 50 mmols/L of Tris-hydrochloric acid, 5 mmols/L of magnesium chloride and 1 mmol/L of EDTA, whose pH was adjusted to 7.5 at 25° C. with 1N-aqueous sodium hydroxide solution) and homogenized, to provide a membrane sample suspension B. Separately, each test compound was made into 270 μmols/L of DMSO solution and diluted to a prescribed concentration with the incubation buffer solution B to provide a compound solution.
A piece of polypropylene tube was charged with 20 μL of [^3H]BRL-43694 (purchased from Daiichi Pure Chemicals Co., Ltd.) (The concentration of [^3H]BRL-43694 had been advancedly adjusted to render its concentration in the reaction mixture to 0.5 nmols/L.) and 20 μL of one of the compound solutions. Further 500 μL of the membrane sample suspension B was added into the tube, followed by 60 minutes' incubation at 25° C. The reaction was terminated by rapid filtration of the reaction mixture through GF/B filter which had been advancedly immersed in a solution formed by adding to the incubation buffer solution B polyethyleneimine to a concentration of 0.5%, using Brandel cell harvester. Then the filter was washed with about 5 mL of 50 mmols/L of Tris-hydrochloric acid which had been cooled to 4° C. The filter was once again washed after similar operation.
Residual radioactivity on the filter was measured with liquid scintillation counter (ALOKA CO., LTD. LSC-5100). Percent inhibition (%) of each test compound to binding of [^3H]BRL-43694 to 5-HT3 receptor at a concentration of 0.5 nmols/L, i.e., affinity of each test compound to 5-HT3 receptor, can be calculated according to the following expression. The ratio of non-specific binding was calculated by measuring the radioactivity in case of using tropisetron: (ICS 205-930) at a concentration of 10 μmols/L, with which value the measured value of each test compound was compensated.
as §1

Usually inhibition stands for how much of the control response was suppressed.

Regarding `Cc1sc2nc(SCCCN3CCN(c4nc5ccccc5n5cccc45)CC3)n(N)c(=O)c2c1C` [Example 1-5, 3-amino-5,6-dimethyl-2-[3-(4-pyrrolo[1,2-a]quinoxalin-4-ylpiperazin-1-yl)propylthio]-3H-thieno[2,3-d]pyrimidin-4-one], the inhibition at 0.1 µM in assay [1] turned out to be 85%; in assay [2], 82.6%.

`c1cc2ccoc2c(N2CCNCC2)n1` [Production Example 1, 7-piperazin-1-ylfuro[2,3-c]pyridine]: the inhibition at 0.1 µM in assay [1] stood at 86.7%; in assay [2] it was 80.8%.

In the case of `Cc1sc2nc(SCCCN3CCN(c4ccc5ccccc5n4)CC3)n(N)c(=O)c2c1C` [Example 1-1, 3-amino-5,6-dimethyl-2-[3-(4-quinolin-2-ylpiperazin-1-yl)-propylthio]-3H-thieno[2,3-d]pyrimidin-4-one], the results for the inhibition at 0.1 µM in assay [1] and in assay [2] were 94.5% and 94%, respectively.

Consider `Clc1ccc2c(N3CCNCC3)nccc2c1` [Production Example 57, 6-chloro-1-piperazin-1-ylisoquinoline], for which the inhibition at 0.1 µM in assay [1] was 88.9%; in assay [2] it was 96.5%.

`Cc1cc(N2CCN(CCCSc3nc4sc5c(c4c(=O)[nH]3)CCNC5)CC2)nc2ccccc12` [Example 2-20, 2-[3-[4-(4-methylquinolin-2-yl)piperazin-1-yl]propylthio]-3,4,5,6,7,8-hexahydro-4-oxo-9-thia-1,3,7-triaza-9H-fluorene trihydrochloride]: the inhibition at 0.1 µM in assay [1] came to 81.6%; in assay [2], 52.8%.

Take `Clc1ccc2ccnc(N3CCN4CCC[C@@H]4C3)c2c1` [Production Example 76, 7-chloro-1-((8aR)-octahydropyrrolo[1,2-a]pyrazin-2-yl)isoquinoline]: the inhibition at 0.1 µM in assay [1] was found to be 96.6%; in assay [2] it was 94.4%.

Consider `c1cc2occc2c(N2CCN3CCCCC3C2)n1` (stereo not drawn) [Production Example 119, 4-octahydropyrido[1,2-a]pyrazin-2-ylfuro[3,2-c]pyridine], for which the inhibition at 0.1 µM in assay [1] turned out to be 33.7%; in assay [2], 71.9%.

As for `Cc1cc(N2CCN(CCCCc3nc4c(c(=O)n3Cc3ccccc3)CCCC4)CC2)nc2ccccc12` [Example 7-8, 3-benzyl-2-[4-[4-(4-methylquinolin-2-yl)piperazin-1-yl]butyl]-5,6,7,8-tetrahydro-3H-quinazolin-4-one], the values for the inhibition at 0.1 µM in assay [1] and in assay [2] were 93.4% and 78.8%, respectively.

As for `c1cnc2c(N3CCN4CCC[C@H]4C3)nccc2c1` [Production Example 74, 8-((8aS)-octahydropyrrolo[1,2-a]pyrazin-2-yl)-1,7-naphthyridine], the inhibition at 0.1 µM in assay [1] was 94.6%; in assay [2], 98.9%.

Regarding `NN1Oc2c(sc3c2CCCCCC3)N=C1SCCCN1CCN(c2ccc3ccccc3n2)CC1` [Example 1-24, 3-amino-2-[3-(4-quinolin-2-ylpiperazin-1-yl)propylthio]-3,4,5,6,7,8,9,10-octahydro-4-oxa-11-thia-1,3-diaza-11H-cycloocta[a]-indene], the inhibition at 0.1 µM in assay [1] was 95.7%; in assay [2] it was 79.6%.

`NN1Oc2c(sc3c2CCNC3)N=C1SCCCN1CCN(c2ccc3ccccc3n2)CC1` [Example 1-59, 3-amino-2-[3-(4-quinolin-2-ylpiperazin-1-yl)propylthio]-3,4,5,6,7,8-hexahydro-4-oxa-9-thia-1,3,7-triaza-9H-fluorene trihydrochloride]: the inhibition at 0.1 µM in assay [1] came to 100%; in assay [2], 50%.

In the case of `CSc1ccc2ccnc(N3CCN4CCC[C@H]4C3)c2c1` [Production Example 82], the inhibition at 0.1 µM in assay [1] turned out to be 99.3%; in assay [2], 90.3%.
